Measurements as given in ChEMBL document CHEMBL4402510, “Caprazamycins: Promising lead structures acting on a novel antibacterial target MraY” (Eur J Med Chem, 2019).
pIC50: −log10 of the molar value. ≈ marks a conversion by molar mass, not a printed value.

What was measured:
[1] = target: T1, Phospho-N-acetylmuramoyl-pentapeptide-transferase (Bacillus subtilis (strain 168), UniProt Q03521); experiment: Inhibition of MraY in Bacillus subtilis using UDP-MurNAc-[14C]pentapeptide as substrate by radioactivity scanning assay
T1 sequence (Q03521 whole entry): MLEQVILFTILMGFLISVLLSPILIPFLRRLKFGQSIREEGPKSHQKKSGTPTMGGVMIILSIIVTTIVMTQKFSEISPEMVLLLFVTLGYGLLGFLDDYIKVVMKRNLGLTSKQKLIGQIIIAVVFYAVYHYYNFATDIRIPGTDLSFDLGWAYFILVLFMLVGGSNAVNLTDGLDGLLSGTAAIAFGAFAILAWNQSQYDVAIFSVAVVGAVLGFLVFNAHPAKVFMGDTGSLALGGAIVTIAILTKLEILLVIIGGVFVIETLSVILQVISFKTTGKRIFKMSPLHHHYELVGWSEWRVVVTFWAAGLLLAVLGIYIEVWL

Haemophilus influenzae [2] = experiment: Antibacterial activity against Haemophilus influenzae after 20 hrs by NCCLS-based two-fold broth dilution method; assay type: functional
Enterococcus faecalis [3] = experiment: Antibacterial activity against t Enterococcus faecalis after 20 hrs by NCCLS-based two-fold broth dilution method; assay type: functional; conditions: read-out: MIC
Enterococcus faecalis [4] = experiment: Antibacterial activity against t Enterococcus faecalis VRE after 20 hrs by NCCLS-based two-fold broth dilution method; assay type: functional; conditions: read-out: MIC
Staphylococcus aureus [5] = experiment: Antibacterial activity against methicillin resistant Staphylococcus aureus after 20 hrs by NCCLS-based two-fold broth dilution method; assay type: functional; conditions: read-out: MIC
Staphylococcus aureus [6] = experiment: Antibacterial activity against methicillin susceptible Staphylococcus aureus after 20 hrs by NCCLS-based two-fold broth dilution method; assay type: functional; conditions: read-out: MIC
Enterococcus faecium [7] = experiment: Antibacterial activity against t Enterococcus faecium after 20 hrs by NCCLS-based two-fold broth dilution method; assay type: functional
Enterococcus faecium [8] = experiment: Antibacterial activity against t Enterococcus faecium VRE after 20 hrs by NCCLS-based two-fold broth dilution method; assay type: functional; conditions: read-out: MIC
Escherichia coli [9] = experiment: Antibacterial activity against Escherichia coli after 20 hrs by NCCLS-based two-fold broth dilution method; assay type: functional
Pseudomonas aeruginosa [10] = experiment: Antibacterial activity against Pseudomonas aeruginosa after 20 hrs by NCCLS-based two-fold broth dilution method; assay type: functional
Enterococcus faecium [11] = experiment: Antibacterial activity against Enterococcus faecium ATCC 19434; assay type: functional
Haemophilus influenzae [12] = experiment: Antibacterial activity against Haemophilus influenzae ATCC 10211; assay type: functional
Enterococcus faecalis [13] = experiment: Antibacterial activity against Enterococcus faecalis ATCC 29212; assay type: functional
Enterococcus faecalis [14] = experiment: Antibacterial activity against Enterococcus faecalis SR7914 (VRE); assay type: functional
[15] = target: T2, Phospho-N-acetylmuramoyl-pentapeptide-transferase (Staphylococcus aureus, UniProt P0C1R8); experiment: Inhibition of MraY in Staphylococcus aureus
T2 sequence (P0C1R8 whole entry): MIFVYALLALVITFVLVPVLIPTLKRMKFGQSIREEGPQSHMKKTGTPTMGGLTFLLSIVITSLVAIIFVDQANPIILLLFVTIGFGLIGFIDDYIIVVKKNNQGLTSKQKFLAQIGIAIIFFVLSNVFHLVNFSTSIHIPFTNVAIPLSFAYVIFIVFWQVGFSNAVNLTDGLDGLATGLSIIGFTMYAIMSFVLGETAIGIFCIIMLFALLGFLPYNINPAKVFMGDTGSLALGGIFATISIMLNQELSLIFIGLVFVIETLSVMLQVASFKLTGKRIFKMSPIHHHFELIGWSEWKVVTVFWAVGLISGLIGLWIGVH

Staphylococcus aureus [16] = experiment: Antibacterial activity against methicillin susceptible Staphylococcus aureus ATCC 29213; assay type: functional
Staphylococcus aureus [17] = experiment: Antibacterial activity against methicillin resistant Staphylococcus aureus SR3637; assay type: functional
Enterococcus faecium [18] = experiment: Antibacterial activity against Enterococcus faecium SR7917 (VRE); assay type: functional
Streptococcus pneumoniae = experiment: Antibacterial activity against Streptococcus pneumoniae; assay type: functional
Escherichia coli [19] = experiment: Antibacterial activity against Escherichia coli ATCC 25922; assay type: functional
Acinetobacter baumannii = experiment: Antibacterial activity against Acinetobacter baumannii ATCC 19606; assay type: functional; conditions: ATCC 19606 = CIP 70.34 = JCM 6841
Pseudomonas aeruginosa [20] = experiment: Antibacterial activity against Pseudomonas aeruginosa PAO1 deltamexB; assay type: functional
Pseudomonas aeruginosa [21] = experiment: Antibacterial activity against Pseudomonas aeruginosa YY165; assay type: functional
[22] = test system: Mycolicibacterium smegmatis; experiment: Antibacterial activity against Mycobacterium smegmatis; assay type: functional
[23] = test system: Mycobacterium tuberculosis; experiment: Antibacterial activity against Mycobacterium tuberculosis; assay type: functional
Mycobacterium avium = experiment: Antibacterial activity against Mycobacterium avium; assay type: functional
[24] = test system: Mycobacterium intracellulare; experiment: Antibacterial activity against Mycobacterium intracellulare; assay type: functional
[25] = target: Phospho-N-acetylmuramoyl-pentapeptide-transferase (Escherichia coli, UniProt E2QF15); experiment: Inhibition of MraY in Escherichia coli
Staphylococcus aureus [26] = experiment: Antibacterial activity against methicillin resistant Staphylococcus aureus; assay type: functional, organism-based
[27] = target: T1, Phospho-N-acetylmuramoyl-pentapeptide-transferase; experiment: Inhibition of MraY in Bacillus subtilis
Escherichia coli [28] = experiment: Antibacterial activity against Escherichia coli ATCC 8730; assay type: functional
Citrobacter freundii = experiment: Antibacterial activity against Citrobacter freundii ATCC 8090; assay type: functional
Pseudomonas aeruginosa [29] = experiment: Antibacterial activity against Pseudomonas aeruginosa ATCC 27853; assay type: functional
Staphylococcus aureus [30] = experiment: Antibacterial activity against Staphylococcus aureus ATCC 25923; assay type: functional
Staphylococcus aureus [31] = experiment: Antibacterial activity against methicillin resistant Staphylococcus aureus ATCC 43300; assay type: functional

Phospho-N-acetylmuramoyl-pentapeptide-transferase (Escherichia coli, UniProt E2QF15), sequence (E2QF15 whole entry): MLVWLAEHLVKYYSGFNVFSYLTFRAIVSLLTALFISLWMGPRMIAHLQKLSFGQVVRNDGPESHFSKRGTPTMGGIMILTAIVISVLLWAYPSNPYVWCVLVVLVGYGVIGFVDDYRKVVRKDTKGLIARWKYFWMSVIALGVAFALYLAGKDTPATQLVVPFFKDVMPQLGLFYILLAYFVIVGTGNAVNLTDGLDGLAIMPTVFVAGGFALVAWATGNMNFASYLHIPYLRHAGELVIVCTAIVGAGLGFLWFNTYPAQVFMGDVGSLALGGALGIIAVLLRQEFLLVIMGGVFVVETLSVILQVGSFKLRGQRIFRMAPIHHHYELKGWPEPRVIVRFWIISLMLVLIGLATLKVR

SMILES	MIC (Enterococcus faecalis [3])	MIC (Enterococcus faecalis [4])	MIC (Staphylococcus aureus [5])	MIC (Staphylococcus aureus [6])	MIC (Enterococcus faecium [7])	MIC (Enterococcus faecium [8])	MIC (Escherichia coli [9])	MIC (Enterococcus faecium [11])	MIC (Haemophilus influenzae [12])	MIC (Enterococcus faecalis [13])	MIC (Enterococcus faecalis [14])	pIC50 [15]	MIC (Staphylococcus aureus [16])	MIC (Staphylococcus aureus [17])	MIC (Enterococcus faecium [18])	MIC (Streptococcus pneumoniae)	MIC (Escherichia coli [19])	MIC (Acinetobacter baumannii)	MIC (Pseudomonas aeruginosa [20])	MIC (Pseudomonas aeruginosa [21])	other results
NC[C@H]1O[C@@H](O[C@@H](c2cn(Cc3ccc(COc4ccc(C(=O)c5ccccc5)cc4)cc3)nn2)[C@H]2O[C@@H](n3ccc(=O)[nH]c3=O)[C@H](O)[C@@H]2O)[C@H](O)[C@@H]1O																					pIC50 [1]: 4.30
CCCCCCCCCCCCCCCC(=O)N[C@@H]1CCN[C@@H]([C@H](O[C@@H]2O[C@H](CN)[C@@H](O)[C@H]2O)[C@H]2O[C@@H](n3ccc(=O)[nH]c3=O)[C@H](O)[C@@H]2O)C1	4 µg/mL (≈ 5.62 µM)	2 µg/mL (≈ 2.81 µM)	16 µg/mL (≈ 22.5 µM)	8 µg/mL (≈ 11.2 µM)	2 µg/mL (≈ 2.81 µM)	8 µg/mL (≈ 11.2 µM)	4 µg/mL (≈ 5.62 µM)	8 µg/mL (≈ 11.2 µM)	32 µg/mL (≈ 45 µM)	4 µg/mL (≈ 5.62 µM)	2 µg/mL (≈ 2.81 µM)	4.62	8 µg/mL (≈ 11.2 µM)	16 µg/mL (≈ 22.5 µM)	4 µg/mL (≈ 5.62 µM)	64 µg/mL (≈ 89.9 µM)	> 64 µg/mL	> 64 µg/mL	> 64 µg/mL	32 µg/mL (≈ 45 µM)	MIC (Haemophilus influenzae [2]): 32 µg/mL (≈ 45 µM); MIC (Pseudomonas aeruginosa [10]): 32 µg/mL (≈ 45 µM)
CCCCCCCCCCCC[C@@H](CC(=O)O[C@H]1CN(C)[C@@H]([C@H](O[C@@H]2O[C@H](CN)[C@@H](O)[C@H]2O)[C@H]2O[C@@H](n3ccc(=O)[nH]c3=O)[C@H](O)[C@@H]2O)C(=O)N(C)[C@@H]1C(=O)O)OC(=O)C[C@H](C)CC(=O)O[C@@H]1O[C@@H](C)[C@H](OC)[C@@H](OC)[C@H]1OC																					MIC [22]: 0.78 to 1.56 µg/mL (≈ 0.689 to 1.38 µM); MIC [23]: 0.78 µg/mL (≈ 0.689 µM); MIC (Mycobacterium avium): < 0.025 µg/mL; MIC [24]: 0.78 µg/mL (≈ 0.689 µM)
NC[C@H]1O[C@@H](O[C@@H](CO)[C@H]2O[C@@H](n3ccc(=O)[nH]c3=O)[C@H](O)[C@@H]2O)[C@H](O)[C@@H]1O																					pIC50 [25]: 5.30
CCCCCCCCCCCCCCCC(=O)N[C@H]1CCN[C@H]([C@@H](O[C@@H]2O[C@H](CN)[C@@H](O)[C@H]2O)[C@H]2O[C@@H](n3ccc(=O)[nH]c3=O)[C@H](O)[C@@H]2O)C1	16 µg/mL (≈ 22.5 µM)	16 µg/mL (≈ 22.5 µM)	16 µg/mL (≈ 22.5 µM)	8 µg/mL (≈ 11.2 µM)	32 µg/mL (≈ 45 µM)	8 µg/mL (≈ 11.2 µM)	32 µg/mL (≈ 45 µM)	32 µg/mL (≈ 45 µM)	> 64 µg/mL	16 µg/mL (≈ 22.5 µM)	16 µg/mL (≈ 22.5 µM)	< 2.57	8 µg/mL (≈ 11.2 µM)	16 µg/mL (≈ 22.5 µM)	8 µg/mL (≈ 11.2 µM)	64 µg/mL (≈ 89.9 µM)	32 µg/mL (≈ 45 µM)	> 64 µg/mL	> 64 µg/mL	> 64 µg/mL	
CCCCCCCCCCCCCCCC(=O)OC[C@@H]1[C@H](C(N)=O)[C@H]([C@H]2O[C@@H](n3ccc(=O)[nH]c3=O)[C@H](O)[C@@H]2O)ON1CCCN	16 µg/mL (≈ 24.5 µM)	4 to 8 µg/mL (≈ 6.12 to 12.2 µM)																			MIC (Haemophilus influenzae [2]): 0.25 to 0.5 µg/mL (≈ 0.382 to 0.765 µM)
CCCCCCCCCCCCCCCC(=O)N[C@@H]1CCN[C@@H]([C@@H](O[C@@H]2O[C@H](CN)[C@@H](O)[C@H]2O)[C@H]2O[C@@H](n3ccc(=O)[nH]c3=O)[C@H](O)[C@@H]2O)C1	32 µg/mL (≈ 45 µM)	32 µg/mL (≈ 45 µM)	32 µg/mL (≈ 45 µM)	16 µg/mL (≈ 22.5 µM)	32 µg/mL (≈ 45 µM)	16 µg/mL (≈ 22.5 µM)	32 µg/mL (≈ 45 µM)	32 µg/mL (≈ 45 µM)	> 64 µg/mL	32 µg/mL (≈ 45 µM)	32 µg/mL (≈ 45 µM)	< 2.57	16 µg/mL (≈ 22.5 µM)	32 µg/mL (≈ 45 µM)	16 µg/mL (≈ 22.5 µM)	64 µg/mL (≈ 89.9 µM)	32 µg/mL (≈ 45 µM)	> 64 µg/mL	> 64 µg/mL	> 64 µg/mL	
NC[C@H]1O[C@@H](O[C@@H](c2cn(CCCCCCCCCCOc3ccc(C(=O)c4ccccc4)cc3)nn2)[C@H]2O[C@@H](n3ccc(=O)[nH]c3=O)[C@H](O)[C@@H]2O)[C@H](O)[C@@H]1O								> 128 µg/mL													pIC50 [1]: 4.00; pIC50 (Staphylococcus aureus [26]): 4.00; pIC50 [27]: 3.90; MIC (Escherichia coli [28]): > 128 µg/mL; MIC (Citrobacter freundii): > 128 µg/mL; MIC (Pseudomonas aeruginosa [29]): > 128 µg/mL; MIC (Staphylococcus aureus [30]): 8 µg/mL (≈ 10.3 µM); MIC (Staphylococcus aureus [31]): 8 µg/mL (≈ 10.3 µM)
